Numbers after ± are expanded uncertainties.
Assay: mn = molality of the nth substance listed, in mol/kg
Conditions: 100 kPa, Liquid; for viscosity: Capillary tube (Ostwald / Ubbelohde) method; for speed of sound: Frequency=3 MHz, Sing-around technique in a fixed-path interferometer; for mass density: Vibrating tube method

C[C@H](CCC(=O)[O-])[C@H]1CC[C@H]2[C@@H]3CC[C@@H]4C[C@H](O)CC[C@]4(C)[C@H]3C[C@H](O)[C@]12C.[Na+] [sodium deoxycholate] + O
Conditions | mass density [kg/m3] | speed of sound [m/s] | viscosity [mPa·s]
293.15 K, m1 = 0.001 | 998.465 ± 0.14 | 1483.4 ± 1.4 | 1.003 ± 0.021
293.15 K, m1 = 0.002 | 998.579 ± 0.12 | 1483.8 ± 1.3 | 1.004 ± 0.021
293.15 K, m1 = 0.003 | 998.669 ± 0.12 | 1484.2 ± 1.3 | 1.006 ± 0.021
293.15 K, m1 = 0.004 | 998.749 ± 0.12 | 1484.5 ± 1.3 | 1.009 ± 0.021
293.15 K, m1 = 0.005 | 998.815 ± 0.12 | 1484.6 ± 1.3 | 1.014 ± 0.022
293.15 K, m1 = 0.006 | 998.905 ± 0.12 | 1485 ± 1.3 | 1.027 ± 0.022
293.15 K, m1 = 0.007 | 998.995 ± 0.12 | 1485.2 ± 1.3 | 1.036 ± 0.021
293.15 K, m1 = 0.009 | 999.185 ± 0.12 | 1485.5 ± 1.6 | 1.045 ± 0.022
293.15 K, m1 = 0.011 | 999.39 ± 0.12 | 1485.8 ± 1.3 | 1.049 ± 0.021
293.15 K, m1 = 0.013 | 999.585 ± 0.12 | 1486.2 ± 1.3 | 1.053 ± 0.021
293.15 K, m1 = 0.015 | 999.795 ± 0.12 | 1486.5 ± 1.6 | 1.062 ± 0.022
293.15 K, m1 = 0.017 | 999.993 ± 0.12 | 1486.8 ± 1.3 | 1.069 ± 0.021
298.15 K, m1 = 0.001 | 997.29 ± 0.14 | 1497.2 ± 1.3 | 0.8914 ± 0.021
298.15 K, m1 = 0.002 | 997.395 ± 0.12 | 1497.5 ± 1.3 | 0.8926 ± 0.021
298.15 K, m1 = 0.003 | 997.475 ± 0.12 | 1497.8 ± 1.3 | 0.8937 ± 0.021
298.15 K, m1 = 0.004 | 997.555 ± 0.12 | 1497.9 ± 1.3 | 0.8967 ± 0.021
298.15 K, m1 = 0.005 | 997.635 ± 0.12 | 1498.1 ± 1.3 | 0.9021 ± 0.021
298.15 K, m1 = 0.006 | 997.715 ± 0.12 | 1498.4 ± 1.3 | 0.915 ± 0.022
298.15 K, m1 = 0.007 | 997.805 ± 0.13 | 1498.7 ± 1.3 | 0.924 ± 0.021
298.15 K, m1 = 0.009 | 997.996 ± 0.12 | 1499.2 ± 1.3 | 0.9323 ± 0.021
298.15 K, m1 = 0.011 | 998.185 ± 0.12 | 1499.5 ± 1.3 | 0.9368 ± 0.021
298.15 K, m1 = 0.013 | 998.388 ± 0.12 | 1499.9 ± 1.3 | 0.941 ± 0.021
298.15 K, m1 = 0.015 | 998.572 ± 0.12 | 1500.2 ± 1.3 | 0.9489 ± 0.021
298.15 K, m1 = 0.017 | 998.772 ± 0.12 | 1500.6 ± 1.3 | 0.956 ± 0.021
303.15 K, m1 = 0.001 | 995.88 ± 0.14 | 1509.6 ± 1.3 | 0.7987 ± 0.021
303.15 K, m1 = 0.002 | 995.983 ± 0.13 | 1509.9 ± 1.3 | 0.7999 ± 0.021
303.15 K, m1 = 0.003 | 996.059 ± 0.13 | 1510 ± 1.3 | 0.801 ± 0.021
303.15 K, m1 = 0.004 | 996.137 ± 0.13 | 1510.2 ± 1.3 | 0.8039 ± 0.021
303.15 K, m1 = 0.005 | 996.215 ± 0.13 | 1510.5 ± 1.3 | 0.8092 ± 0.021
303.15 K, m1 = 0.006 | 996.289 ± 0.13 | 1510.7 ± 1.3 | 0.822 ± 0.021
303.15 K, m1 = 0.007 | 996.377 ± 0.13 | 1511 ± 1.3 | 0.8309 ± 0.021
303.15 K, m1 = 0.009 | 996.557 ± 0.13 | 1511.3 ± 1.3 | 0.8391 ± 0.021
303.15 K, m1 = 0.011 | 996.745 ± 0.13 | 1511.8 ± 1.3 | 0.8434 ± 0.021
303.15 K, m1 = 0.013 | 996.921 ± 0.13 | 1512 ± 1.3 | 0.8476 ± 0.021
303.15 K, m1 = 0.015 | 997.109 ± 0.13 | 1512.3 ± 1.3 | 0.8554 ± 0.021
303.15 K, m1 = 0.017 | 997.29 ± 0.13 | 1512.7 ± 1.3 | 0.8624 ± 0.021
308.15 K, m1 = 0.001 | 994.255 ± 0.14 | 1520.1 ± 1.3 | 0.7203 ± 0.021
308.15 K, m1 = 0.002 | 994.355 ± 0.13 | 1520.5 ± 1.3 | 0.7215 ± 0.021
308.15 K, m1 = 0.003 | 994.435 ± 0.13 | 1520.7 ± 1.3 | 0.7225 ± 0.021
308.15 K, m1 = 0.004 | 994.509 ± 0.13 | 1520.8 ± 1.3 | 0.7254 ± 0.021
308.15 K, m1 = 0.005 | 994.587 ± 0.13 | 1521 ± 1.3 | 0.7307 ± 0.021
308.15 K, m1 = 0.006 | 994.659 ± 0.13 | 1521.3 ± 1.3 | 0.7433 ± 0.021
308.15 K, m1 = 0.007 | 994.739 ± 0.13 | 1521.5 ± 1.3 | 0.752 ± 0.021
308.15 K, m1 = 0.009 | 994.914 ± 0.13 | 1521.9 ± 1.3 | 0.7601 ± 0.021
308.15 K, m1 = 0.011 | 995.094 ± 0.13 | 1522.2 ± 1.3 | 0.7644 ± 0.021
308.15 K, m1 = 0.013 | 995.282 ± 0.13 | 1522.6 ± 1.3 | 0.7685 ± 0.021
308.15 K, m1 = 0.015 | 995.452 ± 0.13 | 1522.8 ± 1.3 | 0.7762 ± 0.021
308.15 K, m1 = 0.017 | 995.616 ± 0.13 | 1523.2 ± 1.3 | 0.7831 ± 0.021
313.15 K, m1 = 0.001 | 992.421 ± 0.14 | 1529.3 ± 1.3 | 0.6543 ± 0.021
313.15 K, m1 = 0.002 | 992.515 ± 0.14 | 1529.5 ± 1.3 | 0.6554 ± 0.021
313.15 K, m1 = 0.003 | 992.6 ± 0.14 | 1529.7 ± 1.3 | 0.6565 ± 0.021
313.15 K, m1 = 0.004 | 992.681 ± 0.14 | 1529.8 ± 1.3 | 0.6593 ± 0.021
313.15 K, m1 = 0.005 | 992.757 ± 0.14 | 1530 ± 1.3 | 0.6645 ± 0.021
313.15 K, m1 = 0.006 | 992.817 ± 0.14 | 1530.3 ± 1.3 | 0.677 ± 0.021
313.15 K, m1 = 0.007 | 992.91 ± 0.14 | 1530.5 ± 1.3 | 0.6857 ± 0.021
313.15 K, m1 = 0.009 | 993.064 ± 0.14 | 1530.9 ± 1.3 | 0.6936 ± 0.021
313.15 K, m1 = 0.011 | 993.239 ± 0.14 | 1531.2 ± 1.3 | 0.6979 ± 0.021
313.15 K, m1 = 0.013 | 993.428 ± 0.14 | 1531.5 ± 1.3 | 0.7019 ± 0.021
313.15 K, m1 = 0.015 | 993.595 ± 0.14 | 1531.8 ± 1.3 | 0.7096 ± 0.021
313.15 K, m1 = 0.017 | 993.737 ± 0.13 | 1532 ± 1.3 | 0.7164 ± 0.021
318.15 K, m1 = 0.001 | 990.405 ± 0.14 | 1536.9 ± 1.3 | 0.5973 ± 0.021
318.15 K, m1 = 0.002 | 990.499 ± 0.14 | 1537.1 ± 1.3 | 0.5984 ± 0.021
318.15 K, m1 = 0.003 | 990.576 ± 0.14 | 1537.3 ± 1.3 | 0.5994 ± 0.021
318.15 K, m1 = 0.004 | 990.651 ± 0.14 | 1537.3 ± 1.3 | 0.6022 ± 0.021
318.15 K, m1 = 0.005 | 990.732 ± 0.14 | 1537.5 ± 1.3 | 0.6074 ± 0.021
318.15 K, m1 = 0.006 | 990.802 ± 0.14 | 1537.7 ± 1.3 | 0.6197 ± 0.021
318.15 K, m1 = 0.007 | 990.892 ± 0.14 | 1537.9 ± 1.3 | 0.6283 ± 0.021
318.15 K, m1 = 0.009 | 991.03 ± 0.14 | 1538.3 ± 1.3 | 0.6361 ± 0.022
318.15 K, m1 = 0.011 | 991.199 ± 0.14 | 1538.6 ± 1.3 | 0.6403 ± 0.021
318.15 K, m1 = 0.013 | 991.379 ± 0.14 | 1538.9 ± 1.3 | 0.6443 ± 0.021
318.15 K, m1 = 0.015 | 991.535 ± 0.14 | 1539.2 ± 1.3 | 0.6518 ± 0.021
318.15 K, m1 = 0.017 | 991.705 ± 0.14 | 1539.5 ± 1.3 | 0.6586 ± 0.021
